Source: ChEMBL document CHEMBL4261544, “Structure-metabolism-relationships in the microsomal clearance of piperazin-1-ylpyridazines” (Medchemcomm, 2017)

Experiments:
[1] = Half life in mouse liver microsomes at 10 uM in presence of NADPH by LC-MS/MS analysis; type: ADME, microsome; settings: for half-life at 10 µM: liver microsomes
[2] = Half life in human liver microsomes at 10 uM in presence of NADPH by LC-MS/MS analysis; type: ADME, microsome; settings: for half-life at 10 µM: liver microsomes
[3] = Extraction ratio in human liver microsomes at 10 uM in presence of NADPH by LC-MS/MS analysis; type: ADME, microsome; settings: read-out: ERH
[4] = Extraction ratio in mouse liver microsomes at 10 uM in presence of NADPH by LC-MS/MS analysis; type: ADME, microsome; settings: read-out: ERH
[5] = Drug metabolism in mouse liver microsomes assessed as oxidation at benzene ring B at 10 uM in presence of NADPH after 30 to 60 mins by LC-MS/MS analysis; type: ADME, microsome
[6] = Drug metabolism in mouse liver microsomes assessed as oxidation at benzene ring A at 10 uM in presence of NADPH after 30 to 60 mins by LC-MS/MS analysis; type: ADME, microsome
[7] = Drug metabolism in mouse liver microsomes assessed as oxidation at benzene ring C at 10 uM in presence of NADPH after 30 to 60 mins by LC-MS/MS analysis; type: ADME, microsome
[8] = Drug metabolism in mouse liver microsomes assessed as oxidation at benzene ring D at 10 uM in presence of NADPH after 30 to 60 mins by LC-MS/MS analysis; type: ADME, microsome
[9] = Drug level in mouse liver microsomes treated with N-benzyl-6-(4-(o-tolylsulfonyl)piperazin-1-yl)pyridazine-3-carboxamide at 10 uM in presence of NADPH after 60 mins by LC-MS/MS analysis; type: ADME, microsome; settings: 1 h
[10] = Drug level in human liver microsomes treated with N-benzyl-6-(4-(o-tolylsulfonyl)piperazin-1-yl)pyridazine-3-carboxamide at 10 uM in presence of NADPH after 60 mins by LC-MS/MS analysis; type: ADME, microsome; settings: 1 h
[11] = Aqueous solubility in pH 7.4 PBS buffer; type: physicochemical
[12] = Drug metabolism in human liver microsomes assessed as 6-(4-(o-tolylsulfonyl)piperazin-1-yl)pyridazine-3-carboxamide formation at 10 uM in presence of NADPH after 60 mins by LC-MS/MS analysis; type: ADME, microsome; settings: 1 h
[13] = Metabolic stability in mouse liver microsomes assessed as parent compound remaining at 10 uM in presence of NADPH after 60 mins by LC-MS/MS analysis; type: ADME, microsome; settings: 1 h
[14] = Metabolic stability in human liver microsomes assessed as parent compound remaining at 10 uM in presence of NADPH after 60 mins by LC-MS/MS analysis; type: ADME, microsome; settings: 1 h

SMILES: O=C(NCc1ccc(F)cc1)c1ccc(N2CCN(S(=O)(=O)c3cccnc3Cl)CC2)nn1
- half-life at 10 µM [1]: 13 min

SMILES: Cc1ccccc1S(=O)(=O)N1CCN(c2ccc(C(=O)NCc3cncs3)nn2)CC1
- half-life at 10 µM [2]: 30 min
- hepatic extraction ratio at 10 µM [3]: 0.59
- hepatic extraction ratio at 10 µM [4]: 0.77
- half-life at 10 µM [1]: 18 min

SMILES: O=C(NCc1ccccc1)c1ccc(N2CCN(S(=O)(=O)c3cccc(Cl)c3Cl)CC2)nn1
- half-life at 10 µM [2]: 16 min
- hepatic extraction ratio at 10 µM [3]: 0.73
- hepatic extraction ratio at 10 µM [4]: 0.81
- half-life at 10 µM [1]: 14 min

SMILES: O=C(NCc1ccc(F)cc1)c1ccc(N2CC3(C2)CN(S(=O)(=O)c2cccnc2Cl)C3)nn1
- half-life at 10 µM [2]: 0.35 min
- hepatic extraction ratio at 10 µM [3]: 0.29
- half-life at 10 µM [1]: 113 min

SMILES: O=C(NCc1ccc(F)cc1)c1ccc(N2CCN(S(=O)(=O)c3ccc(F)cc3C(F)(F)F)CC2)nn1
- Drug metabolism [5]: Metabolite_Detected
- Drug metabolism [6]: Metabolite_Notdetected
- Drug metabolism [7]: Metabolite_Detected
- Drug metabolism [8]: Metabolite_Detected
- hepatic extraction ratio at 10 µM [4]: 0.84
- half-life at 10 µM [1]: 12 min

SMILES: O=C(NCc1ccccc1)c1ccc(N2CCN(S(=O)(=O)c3ccccc3Cl)CC2)nn1
- half-life at 10 µM [2]: 5 min
- hepatic extraction ratio at 10 µM [3]: 0.89
- hepatic extraction ratio at 10 µM [4]: 0.97
- half-life at 10 µM [1]: 2 min

SMILES: N#Cc1ncccc1S(=O)(=O)N1CCN(c2ccc(C(=O)NCc3ccc(F)cc3)[n+]([O-])n2)CC1
- half-life at 10 µM [1]: 16 min

SMILES: O=C(NCc1ccccc1)c1ccc(N2CCC(S(=O)(=O)c3cccc(Cl)c3Cl)CC2)nn1
- half-life at 10 µM [2]: 27 min
- hepatic extraction ratio at 10 µM [3]: 0.61
- hepatic extraction ratio at 10 µM [4]: 0.75
- half-life at 10 µM [1]: 20 min

SMILES: Cc1ccccc1S(=O)(=O)N1CC2(CN(c3ccc(C(=O)NCc4ccc(F)cc4)nn3)C2)C1
- half-life at 10 µM [2]: 1 min
- hepatic extraction ratio at 10 µM [3]: 0.97
- hepatic extraction ratio at 10 µM [4]: 0.98
- half-life at 10 µM [1]: 2 min

SMILES: Cc1cc(F)ccc1S(=O)(=O)N1CCN(c2ccc(C(=O)NCc3ccc(F)cc3)nn2)CC1
- hepatic extraction ratio at 10 µM [4]: 0.8
- half-life at 10 µM [1]: 15 min

SMILES: Cc1ccccc1S(=O)(=O)N1CCN(c2ccc(C(=O)NCc3cccs3)nn2)CC1
- half-life at 10 µM [2]: 4 min
- hepatic extraction ratio at 10 µM [3]: 0.92
- hepatic extraction ratio at 10 µM [4]: 0.97
- half-life at 10 µM [1]: 2 min

SMILES: O=C(NCc1ccc(F)cc1)c1ccc(N2CCN(S(=O)(=O)c3ccccc3C(F)(F)F)CC2)nn1
- Drug metabolism [5]: Metabolite_Detected
- Drug metabolism [6]: Metabolite_Notdetected
- Drug metabolism [7]: Metabolite_Detected
- Drug metabolism [8]: Metabolite_Detected
- hepatic extraction ratio at 10 µM [4]: 0.66
- half-life at 10 µM [1]: 31 min

SMILES: Cc1ccccc1S(=O)(=O)N1CCN(c2ccc(C(=O)NCc3ccc(F)cc3)nn2)CC1
- half-life at 10 µM [2]: 34 min
- hepatic extraction ratio at 10 µM [3]: 0.56
- hepatic extraction ratio at 10 µM [4]: 0.7
- half-life at 10 µM [1]: 26 min

SMILES: Cc1ccccc1S(=O)(=O)N1CCN(c2ccc(C(N)=O)nn2)CC1
- Drug metabolism [9]: Metabolite_Detected
- Drug metabolism [10]: Metabolite_Detected

SMILES: O=C(NCc1ccc(F)cc1)c1ccc(N2CCN(S(=O)(=O)c3cccnc3O)CC2)nn1
- half-life at 10 µM [1]: 72 min

SMILES: Cc1nc(C(F)(F)F)ccc1S(=O)(=O)N1CCN(c2ccc(C(=O)NCc3ccc(F)cc3)nn2)CC1
- half-life at 10 µM [1]: 23 min

SMILES: N#Cc1ncccc1S(=O)(=O)N1CCN(c2ccc(C(=O)NCc3ccc(F)cc3)nn2)CC1
- half-life at 10 µM [1]: 5 min

SMILES: Cc1ncccc1S(=O)(=O)N1CCN(c2ccc(C(=O)NCc3ccc(F)cc3)nn2)CC1
- half-life at 10 µM [1]: 8 min

SMILES: Cc1ccccc1S(=O)(=O)N1CCN(c2cnc(C(=O)NCc3ccc(F)cc3)cn2)CC1
- half-life at 10 µM [2]: 2 min
- hepatic extraction ratio at 10 µM [3]: 0.95
- hepatic extraction ratio at 10 µM [4]: 0.95
- half-life at 10 µM [1]: 3 min

SMILES: Cc1ccc(F)cc1S(=O)(=O)N1CCN(c2ccc(C(=O)NCc3ccc(F)cc3)nn2)CC1
- half-life at 10 µM [2]: 12 min
- hepatic extraction ratio at 10 µM [3]: 0.78
- solubility [11]: Insoluble
- hepatic extraction ratio at 10 µM [4]: 0.47
- half-life at 10 µM [1]: 68 min

SMILES: Cc1ccccc1S(=O)(=O)N1CC=C(c2ccc(C(=O)NCc3ccc(F)cc3)nn2)CC1
- half-life at 10 µM [2]: 2 min
- hepatic extraction ratio at 10 µM [3]: 0.96
- hepatic extraction ratio at 10 µM [4]: 0.94
- half-life at 10 µM [1]: 5 min

SMILES: Nc1ncccc1S(=O)(=O)N1CCN(c2ccc(C(=O)NCc3ccc(F)cc3)nn2)CC1
- half-life at 10 µM [1]: 19 min

SMILES: O=C(NCc1ccc(F)cc1)c1ccc(N2CCN(S(=O)(=O)c3cccnc3N3CCOCC3)CC2)nn1
- half-life at 10 µM [1]: 2 min

SMILES: Cc1ccccc1S(=O)(=O)N1CCN(c2ccc(C(=O)NCc3ccccc3)nn2)CC1
- t1/2 ([2]; microsomes, 10 µM): 3 min
- Drug metabolism [12]: Metabolite_Notdetected
- hepatic extraction ratio at 10 µM [3]: 0.93
- hepatic extraction ratio at 10 µM [4]: 0.97
- Stability [13]: 42%
- Stability [14]: 62%
- t1/2 ([1]; microsomes, 10 µM): 2 min

SMILES: O=C(NCc1ccc(F)cc1)c1ccc(N2CCN(S(=O)(=O)c3cccnc3C3CC3)CC2)nn1
- half-life at 10 µM [1]: 6 min
